The target in this experiment is human RIP1 kinase domain (2-375) (Homo sapiens (Human), UniProt Q13546). Briefly: biochemical. The note with it: 50 nM enzyme, 50 μM ATP, 2 hours incubation.
Where [1] appears, read: tight-binding apparent inhibition constant (Ki app, Morrison equation).
[2] abbreviates: RIP1 kinase inhibition, tight-binding apparent Ki.

Structures are written as SMILES.

Chain of human RIP1 kinase domain (2-375) (Q13546 2-375): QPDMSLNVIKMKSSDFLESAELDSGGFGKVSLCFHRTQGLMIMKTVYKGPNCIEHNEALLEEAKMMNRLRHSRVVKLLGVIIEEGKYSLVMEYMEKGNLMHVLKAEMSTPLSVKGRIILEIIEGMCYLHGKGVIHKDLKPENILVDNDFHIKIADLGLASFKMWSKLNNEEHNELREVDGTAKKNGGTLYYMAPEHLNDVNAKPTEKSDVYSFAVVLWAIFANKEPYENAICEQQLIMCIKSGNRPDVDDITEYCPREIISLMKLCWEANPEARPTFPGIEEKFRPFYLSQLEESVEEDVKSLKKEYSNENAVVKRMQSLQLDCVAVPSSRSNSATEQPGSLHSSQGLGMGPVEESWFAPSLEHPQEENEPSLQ

On to `CCC(=O)c1nc2n(n1)[C@H](c1ccccc1)C[C@@H]2F` (racemic) [Example 47, 1-[rac-(5S,7S)-7-fluoro-5-phenyl-6,7-dihydro-5H-pyrrolo[1,2-b][1,2,4]triazol-2-yl]propan-1-one], for which the Ki under setting [1] stood at 3.56 nM.

Take `CC(=O)c1nc2n(n1)[C@@H](c1ccccc1)C[C@H]2F` (racemic) [Example 50, 1-[rac-(5R,7R)-7-fluoro-5-phenyl-6,7-dihydro-5H-pyrrolo[1,2-b][1,2,4]triazol-2-yl]ethanone]: under setting [1], the Ki worked out at 76.7 nM.

Take `[2H]C1([2H])C[C@@H](c2ccccc2)n2nc(C(=O)C3CC3)nc21` (single isomer, unassigned) [Example 114]: under setting [2], the Ki came out at 18 nM.

In the case of `O=C(c1nc2n(n1)[C@H](c1ccccc1)C[C@@H]2F)[C@@H]1CCOC1` (racemic) [Example 132, [rac-(5S,7S)-7-fluoro-5-phenyl-6,7-dihydro-5H-pyrrolo[1,2-b][1,2,4]triazol-2-yl]-[rac-(3R)-tetrahydrofuran-3-yl]methanone], the Ki under setting [2] is under 5 nM.

Turning to `O=C(c1nc2n(n1)[C@H](c1ccccc1)C[C@@H]2F)[C@@H]1C[C@@H]2CC[C@H]1O2` (racemic) [Example 139, [rac-(5S,7S)-7-fluoro-5-phenyl-6,7-dihydro-5H-pyrrolo[1,2-b][1,2,4]triazol-2-yl]-[rac-(1R,2R,4S)-7-oxabicyclo[2.2.1]heptan-2-yl]methanone], under setting [2], the Ki turned out to be 140 nM.

In the case of `C[C@H]1C[C@@H]1C(=O)c1nc2n(n1)[C@H](c1ccccc1)C[C@@H]2F` (mixture of isomers) [Example 75, [(5S,7S)-7-fluoro-5-phenyl-6,7-dihydro-5H-pyrrolo[1,2-b][1,2,4]triazol-2-yl]-[rac-(1S,2S)-2-methylcyclopropyl]methanone], the Ki under setting [2] was determined as 3.7 nM.

`Cn1cc(C(=O)c2nc3n(n2)[C@@H](c2ccccc2)C[C@H]3F)cn1` (stereo in doubt) [Example 48, (1-methylpyrazol-4-yl)-[rac-(5R,7R)-7-fluoro-5-phenyl-6,7-dihydro-5H-pyrrolo[1,2-b][1,2,4]triazol-2-yl]methanone]: the Ki under setting [1] was 416 nM.

On to `[2H][C@]1(F)C[C@@H](c2ccccc2)n2nc(C(=O)C3CC3)nc21` (single isomer, unassigned) [Example 103], for which, under setting [2], the Ki was 7.9 nM.

For the compound `O=C(c1nc2n(n1)[C@H](c1ccccc1)C[C@@H]2F)C1(F)CC1` (single isomer, unassigned) [Example 61], the Ki under setting [1] turned out to be 0.3 nM.

As to `CC1(C(=O)c2nc3n(n2)[C@H](c2ccccc2)C[C@@H]3F)CCCO1` (mixture of isomers) [Example 129, (2-methyltetrahydrofuran-2-yl)-[rac-(5S,7S)-7-fluoro-5-phenyl-6,7-dihydro-5H-pyrrolo[1,2-b][1,2,4]triazol-2-yl]methanone], under setting [2], the Ki was determined as 47 nM.

As to `O=C(c1nc2n(n1)[C@H](c1ccccc1)C[C@@H]2F)C1CCOC1` (mixture of isomers) [Example 130, [rac-(5S,7S)-7-fluoro-5-phenyl-6,7-dihydro-5H-pyrrolo[1,2-b][1,2,4]triazol-2-yl]-tetrahydrofuran-3-yl-methanone], under setting [2], the Ki came out at 8 nM.

In the case of `O=C(c1nc2n(n1)[C@H](c1ccccc1)C[C@@H]2F)[C@@]12COC[C@@H]1C2` (racemic) [Example 143, [rac-(5S,7S)-7-fluoro-5-phenyl-6,7-dihydro-5H-pyrrolo[1,2-b][1,2,4]triazol-2-yl]-[rac-(1R,5R)-3-oxabicyclo[3.1.0]hexan-1-yl]methanone], the Ki under setting [2] was under 5 nM.

For the compound `C[C@@]1(C(=O)c2nc3n(n2)[C@H](c2ccccc2)C[C@@H]3F)CCOC1` (racemic) [Example 137, [rac-(5S,7S)-7-fluoro-5-phenyl-6,7-dihydro-5H-pyrrolo[1,2-b][1,2,4]triazol-2-yl]-[rac-(3R)-3-methyltetrahydrofuran-3-yl]methanone], the Ki under setting [2] is under 5 nM.

In the case of `CC(C)(C)C(=O)c1nc2n(n1)[C@@H](c1ccccc1)C[C@H]2F` (stereo in doubt) [Example 38, 2,2-dimethyl-1-[rac-(5R,7R)-7-fluoro-5-phenyl-6,7-dihydro-5H-pyrrolo[1,2-b][1,2,4]triazol-2-yl]propan-1-one], the Ki under setting [1] was found to be 4.17 nM.

With `CC(C)(C)C(=O)c1nc2n(n1)[C@H](c1ccccc1)C[C@@H]2F` (stereo in doubt) [Example 37, 2,2-dimethyl-1-[rac-(5S,7S)-7-fluoro-5-phenyl-6,7-dihydro-5H-pyrrolo[1,2-b][1,2,4]triazol-2-yl]propan-1-one], under setting [1], the Ki is 2830 nM.

As for `CC(C)(O)C(=O)c1nc2n(n1)[C@@H](c1ccccc1)C[C@H]2F` (stereo in doubt) [Example 5, 2-hydroxy-2-methyl-1-[rac-(5R,7R)-7-fluoro-5-phenyl-6,7-dihydro-5H-pyrrolo[1,2-b][1,2,4]triazol-2-yl]propan-1-one], the Ki under setting [1] turned out to be 23 nM.

As for `O=C(Cc1ccccc1)c1nc2n(n1)[C@H](c1ccccc1)C[C@@H]2F` (racemic) [Example 7, 2-phenyl-1-[rac-(5S,7S)-7-fluoro-5-phenyl-6,7-dihydro-5H-pyrrolo[1,2-b][1,2,4]triazol-2-yl]ethanone], the Ki under setting [1] turned out to be 12.2 nM.

For the compound `O=C(c1nc2n(n1)[C@H](c1ccccc1)C[C@@H]2F)C1(CO)CC1` (racemic) [Example 58, [1-(hydroxymethyl)cyclopropyl]-[rac-(5S,7S)-7-fluoro-5-phenyl-6,7-dihydro-5H-pyrrolo[1,2-b][1,2,4]triazol-2-yl]methanone], the Ki under setting [1] was 28.7 nM.

Take `N#C[C@@H]1C[C@H]1C(=O)c1nc2n(n1)[C@H](c1ccccc1)C[C@@H]2F` (mixture of isomers) [Example 105, rac-(1R,2R)-2-[(5S,7S)-7-fluoro-5-phenyl-6,7-dihydro-5H-pyrrolo[1,2-b][1,2,4]triazole-2-carbonyl]cyclopropanecarbonitrile]: under setting [2], the Ki stood at 13 nM.

For `O=C(c1nc2n(n1)[C@H](c1ccccc1)C[C@@H]2F)[C@H]1CC12CC2` (racemic) [Example 162, [rac-(5S,7S)-7-fluoro-5-phenyl-6,7-dihydro-5H-pyrrolo[1,2-b][1,2,4]triazol-2-yl]-[rac-(2S)-spiro[2.2]pentan-2-yl]methanone], the Ki under setting [2] was found to be 16 nM.

Take `Cn1cc(C(=O)c2nc3n(n2)[C@H](c2ccccc2)C[C@@H]3F)cn1` (stereo in doubt) [Example 40, (1-methylpyrazol-4-yl)-[rac-(5S,7S)-7-fluoro-5-phenyl-6,7-dihydro-5H-pyrrolo[1,2-b][1,2,4]triazol-2-yl]methanone]: under setting [1], the Ki was over 10000 nM.

For `O=C(c1ccccc1)c1nc2n(n1)[C@H](c1ccccc1)C[C@@H]2F` (racemic) [Example 12, phenyl-[rac-(5S,7S)-7-fluoro-5-phenyl-6,7-dihydro-5H-pyrrolo[1,2-b][1,2,4]triazol-2-yl]methanone], the Ki under setting [1] was determined as 21.2 nM.

For the compound `O=C(c1nc2n(n1)[C@H](c1ccccc1)C[C@@H]2F)[C@@H]1CC12CC2` (racemic) [Example 163, [rac-(5S,7S)-7-fluoro-5-phenyl-6,7-dihydro-5H-pyrrolo[1,2-b][1,2,4]triazol-2-yl]-[rac-(2R)-spiro[2.2]pentan-2-yl]methanone], under setting [2], the Ki is 4 nM.

On to `O=C(c1nc2n(n1)[C@H](c1ccccc1)C[C@@H]2F)[C@H]1CCCN1` (racemic) [Example 128, [rac-(5S,7S)-7-fluoro-5-phenyl-6,7-dihydro-5H-pyrrolo[1,2-b][1,2,4]triazol-2-yl]-[rac-(2R)-pyrrolidin-2-yl]methanone], for which, under setting [2], the Ki was found to be 650 nM.

On to `CCC(=O)c1nc2n(n1)[C@H](c1ccccc1F)CC2` (racemic) [Example 31, 1-[rac-(5S)-5-(2-fluorophenyl)-6,7-dihydro-5H-pyrrolo[1,2-b][1,2,4]triazol-2-yl]propan-1-one], for which the Ki under setting [1] was determined as 7.39 nM.

As for `CCC(=O)c1nc2n(n1)[C@H](c1ccccc1)[C@@H](F)C2` (racemic) [Example 32, 1-[rac-(5R,6S)-6-fluoro-5-phenyl-6,7-dihydro-5H-pyrrolo[1,2-b][1,2,4]triazol-2-yl]propan-1-one], the Ki under setting [1] came to 737 nM.

As for `O=C(COC(F)(F)F)c1nc2n(n1)[C@H](c1ccccc1)C[C@@H]2F` (racemic) [Example 142, 1-[rac-(5S,7S)-7-fluoro-5-phenyl-6,7-dihydro-5H-pyrrolo[1,2-b][1,2,4]triazol-2-yl]-2-(trifluoromethoxy)ethanone], under setting [2], the Ki was determined as 9 nM.

In the case of `O=C(c1nc2n(n1)[C@H](c1ccccc1)C[C@@H]2F)C1C2COCC21` (mixture of isomers) [Example 56, 3-oxabicyclo[3.1.0]hexan-6-yl-[rac-(5S,7S)-7-fluoro-5-phenyl-6,7-dihydro-5H-pyrrolo[1,2-b][1,2,4]triazol-2-yl]methanone], the Ki under setting [1] was 221 nM.

On to `N#CC1CC1C(=O)c1nc2n(n1)[C@H](c1ccccc1)C[C@@H]2F` (mixture of isomers) [Example 86, 2-[rac-(5S,7S)-7-fluoro-5-phenyl-6,7-dihydro-5H-pyrrolo[1,2-b][1,2,4]triazole-2-carbonyl]-cyclopropanecarbonitrile], for which the Ki under setting [2] came to 160 nM.

With `[2H][C@@]1(Cl)C[C@@H](c2ccccc2)n2nc(C(=O)C3CC3)nc21` (racemic) [Example 120, cyclopropyl-[rac-(5S,7R)-7-chloro-7-deuterio-5-phenyl-5,6-dihydropyrrolo[1,2-b][1,2,4]triazol-2-yl]methanone], the Ki under setting [2] amounted to 910 nM.

Take `O=C(CC1CCOCC1)c1nc2n(n1)[C@H](c1ccccc1)C[C@@H]2F` (racemic) [Example 136, 1-[rac-(5S,7S)-7-fluoro-5-phenyl-6,7-dihydro-5H-pyrrolo[1,2-b][1,2,4]triazol-2-yl]-2-tetrahydropyran-4-yl-ethanone]: the Ki under setting [2] was 32 nM.

As for `O=C(c1nc2n(n1)[C@H](c1ccccc1)C[C@@H]2F)C1CCOCC1` (racemic) [Example 126, [rac-(5S,7S)-7-fluoro-5-phenyl-6,7-dihydro-5H-pyrrolo[1,2-b][1,2,4]triazol-2-yl]-tetrahydropyran-4-yl-methanone], under setting [2], the Ki amounted to 57 nM.

For the compound `O=C(c1nc2n(n1)[C@H](c1ccccc1)C[C@@H]2F)C1COC1` (racemic) [Example 57, oxetan-3-yl-[rac-(5S,7S)-7-fluoro-5-phenyl-6,7-dihydro-5H-pyrrolo[1,2-b][1,2,4]triazol-2-yl]methanone], the Ki under setting [1] amounted to 42.3 nM.

The record behind these values is patent publication US11098058B2, “Bicyclic ketone compounds and methods of use thereof” (Genentech, Inc., priority 2017, dated 2021).
